Assay [1] has as its system HUVECs. As to the kind of experiment: Wound healing (scratch) migration assay. The settings on record: for wound closure: 12 h. Type of assay: cell-based, human. The protocol:
FIG. 4 represents In vitro wound closure assay showing effect of Compound 1 migration of HUVECs. (A) ECs were incubated with 2.5% FBS in the presence of VEGF, sunitinib and Compound 1 at the indicated concentrations for 24 h after linear scratched wounds were created in the confluent cells. Post treatment photographs were taken at 0 hr, 12 h and 24 h using an inverted microscope at 10×magnification. (B) Data were quantified using Image J software and graphs were plotted by calculating the % migration of that vehicle treated cells (control). Compound 1 inhibits the wound closure by ECs in a dose dependent manner. The values represent the mean±SEM from (n=3) independent experiments with significant difference compared from control at *p<0.05.
As per previous reports, some anti-angiogenic compounds also show anti-migratory effect by modulating the expression of proteins responsible for blood vessels formation. A Scratch was made to the confluent endothelial cells containing VEGF (50 ng/mL) and sunitinib (50 nM) as a positive and negative control respectively and Compound 1 at 250 nM and 125 nM as a test compound. […] This might contribute to its potent anti-angiogenic effect.
Endothelial cells were grown inside 6-well plate at a confluency rate of 90%. And then with the help of 200 μL tip a straight line scratch was made in the middle of the grown ECs. After giving a gentle wash with 1×PBS, control group received vehicle in 2.5% FBS media. VEGF at 50 ng/mL as a positive control and sunitinib at 50 nM concentration was used as a negative control. Compound 1 at a dose concentration of 250 nM and 125 nM were used onto the wounded cells to observe its anti-migratory effect. After 0 h, 12 h and 24 h of post treatment the wound closure area was observed and micrographed using an inverted microscope (Olympus, Centre Valley, Pa., USA) and were analysed by Image J software. Control well at 100% was used to express inhibition percentage and the assay was performed for three-five times independently.

Assay [2] relates to HUVECs. As to the kind of experiment: 3D angiogenesis assay (cytodex beads in fibrin matrix). Type of assay: cell-based, human. The protocol: (A) ECs were seeded on fibrinogen matrix and were treated with sunitinib and compound 1 at indicated concentrations. Post 5 days of incubation pictures were taken at 10× using inverted microscope. (B) Tube length was quantified using Leica QWin software and graph was plotted taking control (0.01% DMSO) treated cells. Data are represented as mean±SEM with significant difference from control at *p<0.05, **p<0.01 and ***p<0.001.
Anti-angiogenic effect of Compound 1 was further validated by 3D angiogenesis assay (FIG. 5).
Endothelial cells (ECs) were trypsinized and then coated on cytodex beads at the rate of 1500 cells per bead in 5% DMEM medium at 37° C. for 4 h by rotating it gently on IP rotor. Fibrinogen (2 mg/mL) and Aprotonin (40 U/μL) were added to the ECs coated beads and this was subsequently added to the 96 well plate pre-coated with […] (10 U/μL) and incubated for 15 min. Vehicle control in 2.5% DMEM media with different doses of Compound 1 (500 nM, 250 nM, 125 nM and 75 nM) were used to observe the anti-angiogenic effect of Compound 1 on 3D angiogenesis pattern. Post 3 days of incubation the results were observed and photographs were taken under inverted microscope (Olympus, Centre Valley, Pa., USA) and relative tubule lengths were measured using Leica Q-Win software version 3.5.1. (Leica Microsystems, Switzerland).

In assay [3] the test system is endothelial cell. The assay can be described thus: Protein angiogenesis array. The settings on record: 260 nM. Type of assay: cell-based. As to the method: (A) Serum-starved HUVECs were treated with control (0.1% DMSO), sunitinib and Compound 1 at a given concentrations and then incubated for 6 h. The expression level of phospho-VEGFR2 and GAPDH (housekeeping protein) was analyzed by immunoblotting. (B) Blots were quantified with Image-J software and the bar graphs represent the relative density of phospho-VEGFR2 normalized with GAPDH and the data are represented as mean±SEM with significant difference compared with control at *p<0.05. (D) Protein angiogenesis array showing up-regulation of anti-angiogenic protein and down-regulation of pro-angiogenic proteins on endothelial cell treated with Compound 1 at 260 nM.

The test system of assay [4] is HCT116 colon tumor. As to the kind of experiment: HCT116 colon tumor model in nude mice. Type of assay: in vivo. The protocol: FIG. 12 represents Compound 1 inhibited tumor growth in vivo. Tumor sizes were recorded every alternate day by Vernier caliper measurements and calculated as [4/3*[…]*(length/2)*(width/2)]. (A) Nude mice with induced HCT116 tumor were given vehicle to the control group, sunitinib at (40 mg/kg) as a standard drug given orally and Compound 1 at (25 mg/kg) through IP route for 21 days and tumor regression was calculated for all groups. (B) Nude Mice with induced HCT116 colon tumor were given both, sunitinib and Compound 1 at (25 mg/kg) intra-muscularly for 15 days after attaining a tumor size of 100 mm^3, tumor volume reduction for treated groups were calculated and compared with control. Data are expressed as means±S.E.M. (6 mice/group) with significant difference compared with control at p<0.0001.
HCT 116 (Human colon cancer cell line) cells were trypsinised and the pellet was dissolved in ice chilled 1×PBS. HCT 116 cells suspension to a concentration of (1*10^6) cells in 50 μL PBS solution, were left on ice with occasional agitation. Mice were anaesthetized with ketamine: xylazine (100:10 mg/kg), abdominal side area was shaved and sterilized using 70% ethanol. 50 μL of cell suspension was injected slowly subcutaneously to all the mice. After 2 days, booster dose of tumor cells was injected to all mice as performed previously. The growth of the tumor was measured by using vernier caliper on day 2, 4, 6, 8, 10, 12, 14, 16 18, 20, 23 and presented in the form of tumor volume (mm^3)=[4/3*π*(long axis/2)*(short axis/2)]. After attaining a volume of 100 mm^3 of tumor size, all mice were distributed equally (n=6−8) in 3 groups of controls received vehicle (Olive oil). Sutent (25 mg/kg) as a positive control was given orally and Compound 1 (25 mg/kg) dissolved in olive oil was injected intra-muscularly for 15 days and the tumor size regression was measured on every alternate day as described previously. Post 15 days of treatment, mice from all groups were sacrificed and tumor was excised out and processed further for immunohistochemistry and molecular analysis.

In general, T/C refers to the ratio of treated to control. On to `CCOC(=O)C1N=C1CCc1ccc(OC)cc1` (racemic) [Compound 1, Ethyl 3-(4-methoxyphenethyl)-2H-azirine-2-carboxylate], for which the figures for the wound closure in assay [1] (125 nM) and in assay [1] (250 nM) were 75% and 60%, respectively. Besides, the migration entry in assay [1] (24 h) is “complete migration”. In assay [2] (75 nM), this molecule showed a tubule formation of 100%. The “tubulogenesis in 3D angiogenesis” value in assay [2] (500 nM, 250 nM, 125 nM and 75 nM vs control) was “tubulogenesis inhibitory effect”. Moreover, in assay [3], the “expression of anti-angiogenic and angiogenic proteins” value was “significantly increased the protein expression of anti-angiogenic proteins and decreased the expression of angiogenic proteins”. Also, the tumor volume entry in assay [4] (25 mg/kg IP route for 21 days, vs vehicle) was “progressive significant decrease in tumor volume”. Moreover, in assay [4] (25 mg/kg, 15 days), the “growth of HCT116 cells xenografts” value was “powerful inhibitory effect”. In addition, the T/C in assay [4] (25 mg/kg, day 2) is reported as 94.77%; in assay [4] (25 mg/kg, day 4), 72.79%; in assay [4] (25 mg/kg, day 6), 67.93%; in assay [4] (25 mg/kg, day 8), 66.22%; in assay [4] (25 mg/kg, day 10), 68.70%; in assay [4] (25 mg/kg, day 12) it was 56.83%. The T/C in assay [4] (25 mg/kg, day 14) is on record as 49.80%; in assay [4] (25 mg/kg, day 16) it was 43.88%. Also, the “vascular density in tumor tissues (CD31)” value in assay [4] (25 mg/kg, vs control group) is listed as “reduced the vascular density in tumor tissues”. In addition, the tumor reduction in assay [4] (in comparison to vehicle treated control group, end of experiment) amounted to 62.02%.

The values are drawn from patent US20230234920A1, “Azirine Containing Compounds as Anti-Angiogenesis Agents and a Process for the Preparation Thereof” (COUNCIL OF SCIENTIFIC & INDUSTRIAL RESEARCH, priority 2020, published 2023).
